Assays:
Type in all cases: cell-based, Erythrocyte
[1] = Cytotoxicity against human erythrocytes assessed as hemolytic activity after 60 mins; conditions: read-out: HD50
[2] = Cytotoxicity against human erythrocytes assessed as hemolytic activity at 100 ug/ml after 60 mins; conditions: for Activity: erythrocyte, 1 h
[3] = Cytotoxicity against human erythrocytes assessed as hemolytic activity at 50 ug/ml after 60 mins; conditions: read-out: Activity
[4] = Cytotoxicity against human erythrocytes assessed as hemolytic activity at 75 ug/ml after 60 mins
[5] = Cytotoxicity against human erythrocytes assessed as hemolytic activity at 40 ug/ml after 60 mins; conditions: read-out: Activity
[6] = Cytotoxicity against human erythrocytes assessed as hemolytic activity at 30 ug/ml after 60 mins; conditions: read-out: Activity

Row | SMILES | HC50 at 1 h [1] | other results
1 | CCCCCCCCCCCC(=O)O[C@H]1C[C@@H]2[C@H](CC[C@]3(C)[C@@H]4[C@H](C[C@@H]23)O[C@]2(CC[C@@H](C)CO2)[C@H]4C)[C@@]2(C)C[C@@H](O)[C@H](O[C@@H]3O[C@H](CO)[C@@H](O[C@H]4O[C@H](C)[C@@H](O)[C@H](O)[C@@H]4O)[C@H](O)[C@H]3O[C@H]3O[C@H](C)[C@@H](O)[C@H](O)[C@@H]3O)C[C@H]12 | > 100 µM | hemolysis at 1 h, 100 ug/ml ([2]; human erythrocytes, read-out: Activity): 8.5%
2 | CC(=O)O[C@@H]1[C@@H](O)[C@@H](O)[C@H](OC[C@H]2O[C@@H](O[C@H]3CC[C@@]4(C)C(=CC[C@H]5[C@@H]6C[C@@H]7O[C@]8(CC[C@@H](C)CO8)[C@@H](C)[C@@H]7[C@@]6(C)CC[C@@H]54)C3)[C@H](O)[C@@H](O)[C@@H]2O)O[C@H]1C | > 50 µM | hemolysis at 1 h, 50 ug/ml [3]: 12%
3 | CC(=O)OC[C@H]1O[C@@H](O[C@H]2CC[C@@]3(C)C(=CC[C@H]4[C@@H]5C[C@@H]6O[C@]7(CC[C@@H](C)CO7)[C@@H](C)[C@@H]6[C@@]5(C)CC[C@@H]43)C2)[C@H](O[C@@H]2O[C@@H](C)[C@H](OC(C)=O)[C@@H](O)[C@H]2O)[C@@H](O)[C@@H]1O | > 75 µM | hemolysis % ([4]; erythrocyte): 8%
4 | C[C@@H]1CC[C@@]2(OC1)O[C@H]1C[C@H]3[C@@H]4CC=C5C[C@@H](O[C@@H]6O[C@H](CO)[C@@H](O)[C@H](O[C@@H]7O[C@@H](C)[C@H](O)[C@@H](O)[C@H]7O)[C@H]6O)CC[C@]5(C)[C@H]4CC[C@]3(C)[C@H]1[C@@H]2C [POLYPHILLIN C] | > 40 µM | hemolysis at 1 h, 40 ug/ml [5]: 15%
5 | CCCCCCCCCCCCCCCC(=O)O[C@H]1C[C@@H]2[C@H](CC[C@]3(C)[C@@H]4[C@H](C[C@@H]23)O[C@]2(CC[C@@H](C)CO2)[C@H]4C)[C@@]2(C)C[C@@H](O)[C@H](O[C@@H]3O[C@H](CO)[C@@H](O[C@H]4O[C@H](C)[C@@H](O)[C@H](O)[C@@H]4O)[C@H](O)[C@H]3O[C@H]3O[C@H](C)[C@@H](O)[C@H](O)[C@@H]3O)C[C@H]12 | > 100 µM | Activity [2]: Not Active
6 | CC(=O)O[C@H]1C[C@@H]2[C@H](CC[C@]3(C)[C@@H]4[C@H](C[C@@H]23)O[C@]2(CC[C@@H](C)CO2)[C@H]4C)[C@@]2(C)C[C@@H](O)[C@H](O[C@@H]3O[C@H](CO)[C@@H](O[C@H]4O[C@H](C)[C@@H](O)[C@H](O)[C@@H]4O)[C@H](O)[C@H]3O[C@H]3O[C@H](C)[C@@H](O)[C@H](O)[C@@H]3O)C[C@H]12 | > 30 µM | hemolysis at 1 h, 30 ug/ml [6]: 34%
7 | C[C@@H]1CC[C@@]2(OC1)O[C@H]1C[C@H]3[C@@H]4CC[C@H]5C[C@@H](O[C@@H]6O[C@H](CO)[C@@H](O[C@H]7O[C@H](C)[C@@H](O)[C@H](O)[C@@H]7O)[C@H](O)[C@H]6O[C@H]6O[C@H](C)[C@@H](O)[C@H](O)[C@@H]6O)[C@H](O)C[C@]5(C)[C@H]4CC[C@]3(C)[C@H]1[C@@H]2C | 13.1 µM | –
8 | CCCC(=O)O[C@H]1[C@H](O)[C@H](O)[C@@H](O[C@H]2[C@H](O)[C@@H](O[C@H]3O[C@H](C)[C@@H](O)[C@H](O)[C@@H]3O)[C@H](O[C@H]3CC[C@@]4(C)C(=CC[C@H]5[C@@H]6C[C@@H]7O[C@]8(CC[C@@H](C)CO8)[C@@H](C)[C@@H]7[C@@]6(C)CC[C@@H]54)C3)O[C@@H]2CO)O[C@@H]1C | 2.8 µM | –
9 | CO[C@]1(CCC(C)CS[C@@H]2O[C@H](CO)[C@@H](O)[C@H](O)[C@H]2O)O[C@H]2C[C@H]3[C@@H]4CC=C5C[C@@H](O[C@@H]6O[C@H](CO)[C@@H](O[C@H]7O[C@H](C)[C@@H](O)[C@H](O)[C@@H]7O)[C@H](O)[C@H]6O[C@H]6O[C@H](C)[C@@H](O)[C@H](O)[C@@H]6O)[C@H](O)C[C@]5(C)[C@H]4CC[C@]3(C)[C@H]2[C@@H]1C (some centres not stated) | > 100 µM | Activity [2]: Not Active
10 | CO[C@]1(CCC(C)CO[C@@H]2O[C@H](CO)[C@@H](O)[C@H](O)[C@H]2O)O[C@H]2C[C@H]3[C@@H]4CC=C5C[C@@H](O[C@@H]6O[C@H](CO)[C@@H](O[C@H]7O[C@H](C)[C@@H](O)[C@H](O)[C@@H]7O)[C@H](O)[C@H]6O[C@H]6O[C@H](C)[C@@H](O)[C@H](O)[C@@H]6O)[C@H](O)C[C@]5(C)[C@H]4CC[C@]3(C)[C@H]2[C@@H]1C (some centres not stated) | > 100 µM | Activity [2]: Not Active
11 | COc1ccc(C(=O)NC[C@H]2O[C@@H](O[C@H]3CC[C@@]4(C)C(=CC[C@H]5[C@@H]6C[C@@H]7O[C@]8(CC[C@@H](C)CO8)[C@@H](C)[C@@H]7[C@@]6(C)CC[C@@H]54)C3)[C@H](O[C@H]3O[C@H](C)[C@@H](O)[C@H](O)[C@@H]3O)[C@@H](O)[C@@H]2O[C@H]2O[C@H](C)[C@@H](O)[C@H](O)[C@@H]2O)cc1 | 9.5 µM | –
12 | CC(=O)OC[C@H]1O[C@H](O[C@H]2[C@H](O)[C@@H](O[C@H]3O[C@H](C)[C@@H](O)[C@H](O)[C@@H]3O)[C@H](O[C@H]3CC[C@@]4(C)C(=CC[C@H]5[C@@H]6C[C@@H]7O[C@]8(CC[C@@H](C)CO8)[C@@H](C)[C@@H]7[C@@]6(C)CC[C@@H]54)C3)O[C@@H]2CO)[C@@H](O)[C@@H]1OC(C)=O | 2.7 µM | –
13 | C[C@@H]1CC[C@@]2(OC1)O[C@H]1C[C@H]3[C@@H]4CC=C5C[C@@H](O[C@@H]6O[C@H](CO)[C@@H](O[C@H]7O[C@H](C)[C@@H](OCCNC(=O)COc8ccc(Cl)cc8)[C@H](O)[C@@H]7O)[C@H](O)[C@H]6O[C@H]6O[C@H](C)[C@@H](O)[C@H](O)[C@@H]6O)CC[C@]5(C)[C@H]4CC[C@]3(C)[C@H]1[C@@H]2C | 2.9 µM | –
14 | C[C@@H]1CC[C@@]2(OC1)O[C@H]1C[C@H]3[C@@H]4CC=C5C[C@@H](O[C@@H]6O[C@H](CO)[C@@H](O[C@H]7O[C@H](C)[C@@H](OCCN)[C@H](O)[C@@H]7O)[C@H](O)[C@H]6O[C@H]6O[C@H](C)[C@@H](O)[C@H](O)[C@@H]6O)CC[C@]5(C)[C@H]4CC[C@]3(C)[C@H]1[C@@H]2C | 2.6 µM | –
15 | CC(=O)O[C@@H]1[C@@H](O)[C@@H](O)[C@H](O[C@H]2[C@H](O)[C@@H](O)[C@H](O[C@H]3CC[C@@]4(C)C(=CC[C@H]5[C@@H]6C[C@@H]7O[C@]8(CC[C@@H](C)CO8)[C@@H](C)[C@@H]7[C@@]6(C)CC[C@@H]54)C3)O[C@@H]2CO)O[C@H]1C | 29.3 µM | –
16 | C[C@@H]1CC[C@@]2(OC1)O[C@H]1C[C@H]3[C@@H]4CC=C5C[C@@H](O[C@@H]6O[C@H](CNC(=O)c7ccccc7I)[C@@H](O[C@H]7O[C@H](C)[C@@H](O)[C@H](O)[C@@H]7O)[C@H](O)[C@H]6O[C@H]6O[C@H](C)[C@@H](O)[C@H](O)[C@@H]6O)CC[C@]5(C)[C@H]4CC[C@]3(C)[C@H]1[C@@H]2C | 7.4 µM | –
17 | C=CCCCCCCCCC(=O)NCCO[C@H]1[C@H](O)[C@H](O)[C@@H](O[C@H]2[C@H](O)[C@@H](O[C@H]3O[C@H](C)[C@@H](O)[C@H](O)[C@@H]3O)[C@H](O[C@H]3CC[C@@]4(C)C(=CC[C@H]5[C@@H]6C[C@@H]7O[C@]8(CC[C@@H](C)CO8)[C@@H](C)[C@@H]7[C@@]6(C)CC[C@@H]54)C3)O[C@@H]2CO)O[C@@H]1C | 3.8 µM | –
18 | C[C@@H]1CC[C@@]2(OC1)O[C@H]1C[C@H]3[C@@H]4CC=C5C[C@@H](O[C@@H]6O[C@H](CO)[C@@H](O[C@H]7O[C@H](C)[C@@H](OCCNC(=O)c8ccc([N+](=O)[O-])cc8)[C@H](O)[C@@H]7O)[C@H](O)[C@H]6O[C@H]6O[C@H](C)[C@@H](O)[C@H](O)[C@@H]6O)CC[C@]5(C)[C@H]4CC[C@]3(C)[C@H]1[C@@H]2C | 4.9 µM | –
19 | C[C@@H]1CC[C@@]2(OC1)O[C@H]1C[C@H]3[C@@H]4CC=C5C[C@@H](O[C@@H]6O[C@H](CNC(=O)c7ccc([N+](=O)[O-])cc7)[C@@H](O[C@H]7O[C@H](C)[C@@H](O)[C@H](O)[C@@H]7O)[C@H](O)[C@H]6O[C@H]6O[C@H](C)[C@@H](O)[C@H](O)[C@@H]6O)CC[C@]5(C)[C@H]4CC[C@]3(C)[C@H]1[C@@H]2C | 39 µM | –
20 | C[C@@H]1CC[C@@]2(OC1)O[C@H]1C[C@H]3[C@@H]4CC=C5C[C@@H](O[C@@H]6O[C@H](CO)[C@@H](O)[C@H](O)[C@H]6O)CC[C@]5(C)[C@H]4CC[C@]3(C)[C@H]1[C@@H]2C [DISOGLUSIDE] | > 100 µM | Activity [2]: Not Active
21 | CC(=O)OC[C@H]1O[C@@H](O[C@H]2CC[C@@]3(C)C(=CC[C@H]4[C@@H]5C[C@@H]6O[C@]7(CC[C@@H](C)CO7)[C@@H](C)[C@@H]6[C@@]5(C)CC[C@@H]43)C2)[C@H](O[C@@H]2O[C@@H](C)[C@H](O)[C@@H](O)[C@H]2O)[C@@H](O)[C@@H]1O | > 75 µM | hemolysis at 1 h, 75 ug/ml ([4]; human, human erythrocytes, read-out: Activity): 29%
22 | C/C=C/C=C/C(=O)NC[C@H]1O[C@@H](O[C@H]2CC[C@@]3(C)C(=CC[C@H]4[C@@H]5C[C@@H]6O[C@]7(CC[C@@H](C)CO7)[C@@H](C)[C@@H]6[C@@]5(C)CC[C@@H]43)C2)[C@H](O[C@H]2O[C@H](C)[C@@H](O)[C@H](O)[C@@H]2O)[C@@H](O)[C@@H]1O[C@H]1O[C@H](C)[C@@H](O)[C@H](O)[C@@H]1O | 9.3 µM | –
